{
  "source": "patent US20040014215A1",
  "about": "“Synchronised arabidopsis cell suspensions and uses thereof” (priority 2000, published 2004)",
  "system": "CDK-b1",
  "assay": "Northern expression analysis after aphidicolin synchronisation of MM1 (maximum signal = 100%)",
  "type": "cell-based, Arabidopsis thaliana",
  "protocol": "was analysed following the expression level of known cell cycle regulated genes. Synchronisation was performed as described in Example 2A, with the exception that two 7-day old cultures of the weekly sub-cultured cell suspension (210 ml each) were combined. 40 ml of combined culture was transferred into 200 ml of fresh MSS-medium in each of 10 separate flasks. After incubation for 24 hrs under conditions as described in Example 1, in the presence of 4.16 μg/ml aphidicolin, cells from 5 pooled flasks were washed through a nylon net (mesh size 47 μm) and washed with 2 litre MSS medium and shaken vigorously to remove the aphidicolin. Cells were transferred into a 50 ml plastic tube, washed again with MSS medium and centrifuged at 2500 rpm for 1 min (1075 rcf). Cells were resuspended and combined with the cells from the other 5 flasks similarly washed in a total volume of 300 ml fresh MSS-medium. 30 ml of this cell suspension was then added to 200 ml fresh MSS-medium in each of 10 separate flasks.\n1) 25 ml for Northern blot (transferred into 50 ml plastic tube, centrifuged at 2500 rpm for 1 min, the supernatant discarded, and the cell pellet shock-frozen in liquid nitrogen before storing in −80° C. freezer)\nSamples were collected at the time point indicated (time of removal of aphidicolin equals time point 0 hrs) and were analysed for expression of the following genes by Northern blot:\nCDK-b1 (also called Cdc2b/CDK2b: Accession no. ATCDC2BP)\nFor each probe the maximum hybridisation signal obtained was defined as 100%.",
  "key": {"[1]": {"conditions": "0 hrs after aphidicolin removal"}, "[2]": {"conditions": "2 hrs after aphidicolin removal"}, "[3]": {"conditions": "4 hrs after aphidicolin removal"}, "[4]": {"conditions": "6 hrs after aphidicolin removal"}, "[5]": {"conditions": "8 hrs after aphidicolin removal"}, "[6]": {"conditions": "10 hrs after aphidicolin removal"}, "[7]": {"conditions": "12 hrs after aphidicolin removal"}, "[8]": {"conditions": "14 hrs after aphidicolin removal"}, "[9]": {"conditions": "16 hrs after aphidicolin removal"}, "[10]": {"conditions": "18 hrs after aphidicolin removal"}, "[11]": {"conditions": "20 hrs after aphidicolin removal"}, "[12]": {"conditions": "22 hrs after aphidicolin removal"}, "[13]": {"conditions": "24 hrs after aphidicolin removal"}, "[14]": {"conditions": "26 hrs after aphidicolin removal"}, "[15]": {"conditions": "28 hrs after aphidicolin removal"}, "[16]": {"conditions": "30 hrs after aphidicolin removal"}},
  "data": [
    {"smiles": "C[C@@]1(CO)[C@H](O)CC[C@@]2(C)[C@H]1CC[C@H]1C[C@@H]3C[C@@]12CC[C@]3(O)CO", "note": "[aphidicolin]", "values": [
      {"measurement": "CDK-b1 %", "setting": "[1]", "value": 34.26, "unit": "%"},
      {"measurement": "CDK-b1 Band intensity", "setting": "[1]", "value": 500},
      {"measurement": "CDK-b1 %", "setting": "[2]", "value": 57.86, "unit": "%"},
      {"measurement": "CDK-b1 Band intensity", "setting": "[2]", "value": 844},
      {"measurement": "CDK-b1 %", "setting": "[3]", "value": 69.78, "unit": "%"},
      {"measurement": "CDK-b1 Band intensity", "setting": "[3]", "value": 1018},
      {"measurement": "CDK-b1 %", "setting": "[4]", "value": 74.34, "unit": "%"},
      {"measurement": "CDK-b1 Band intensity", "setting": "[4]", "value": 1085},
      {"measurement": "CDK-b1 %", "setting": "[5]", "value": 79.46, "unit": "%"},
      {"measurement": "CDK-b1 Band intensity", "setting": "[5]", "value": 1160},
      {"measurement": "CDK-b1 %", "setting": "[6]", "value": 96.41, "unit": "%"},
      {"measurement": "CDK-b1 Band intensity", "setting": "[6]", "value": 1407},
      {"measurement": "CDK-b1 %", "setting": "[7]", "value": 99.31, "unit": "%"},
      {"measurement": "CDK-b1 Band intensity", "setting": "[7]", "value": 1450},
      {"measurement": "CDK-b1 %", "setting": "[8]", "value": 100.0, "unit": "%"},
      {"measurement": "CDK-b1 Band intensity", "setting": "[8]", "value": 1459},
      {"measurement": "CDK-b1 %", "setting": "[9]", "value": 73.89, "unit": "%"},
      {"measurement": "CDK-b1 Band intensity", "setting": "[9]", "value": 1078},
      {"measurement": "CDK-b1 %", "setting": "[10]", "value": 51.49, "unit": "%"},
      {"measurement": "CDK-b1 Band intensity", "setting": "[10]", "value": 751},
      {"measurement": "CDK-b1 %", "setting": "[11]", "value": 58.87, "unit": "%"},
      {"measurement": "CDK-b1 Band intensity", "setting": "[11]", "value": 859},
      {"measurement": "CDK-b1 %", "setting": "[12]", "value": 42.07, "unit": "%"},
      {"measurement": "CDK-b1 Band intensity", "setting": "[12]", "value": 614},
      {"measurement": "CDK-b1 %", "setting": "[13]", "value": 30.65, "unit": "%"},
      {"measurement": "CDK-b1 Band intensity", "setting": "[13]", "value": 447},
      {"measurement": "CDK-b1 %", "setting": "[14]", "value": 49.74, "unit": "%"},
      {"measurement": "CDK-b1 Band intensity", "setting": "[14]", "value": 726},
      {"measurement": "CDK-b1 %", "setting": "[15]", "value": 50.87, "unit": "%"},
      {"measurement": "CDK-b1 Band intensity", "setting": "[15]", "value": 742},
      {"measurement": "CDK-b1 %", "setting": "[16]", "value": 57.47, "unit": "%"},
      {"measurement": "CDK-b1 Band intensity", "setting": "[16]", "value": 839}
    ]}
  ]
}
